Assay: Pharmacokinetic evaluation of Bupivacaine (BU) and Formula I (1-1) in Sprague-Dawley rats (blood and brain concentrations)
Format: in vivo
Conditions: rat, male Sprague-Dawley rats, intravenous, 3 mg/kg, n=5
Protocol: Male specific pathogen-free Sprague-Dawley rats weighing 300-350 g were obtained from the Laboratory. The animals had free access to food and water. The rat was anaesthetized with urethane 1.0 g/mL and chloralose 0.1 g/mL (1 mL/kg, i.p.) before surgery. The femoral vein was cannulated for further drug administration, and the rat's body temperature was maintained by heating pad during the experiment. All rats remained anaesthetized during the experimental period over which the Formula I (1-1) and BU concentrations in blood, brain and bile were monitored, and they were euthanized by overdose CO2 under the anaesthetic after the experimental endpoint.
Bupivacaine (3 mg/mL) was prepared in 0.9%(w/v) sodium chloride. Formula I (1-1) equivalent of BU 3 mg/mL. Rats were divided into the following groups (n=5 for each group) and received drugs intravenously: group 1 treated with (20 mg/kg) 10 min before BU (3 mg/kg) administration, group 2 treated with Formula I (1-1) (3 mg/kg).
The chromatographic system consisted of a PM-80 chromatographic pump (BAS, West Lafayette, Ind., USA), an off-line injector (CMA/140, Stockholm, Sweden) equipped with a […] sample loop injector (Rheodynemodel7125) and a UV-Vis detector (Soma, Tokyo, Japan) that operated at room temperature (25±2° C.). Separation was achieved on a LiChrosphere60RP-select B column (4.6 mm×250 mm, […], Merck). The mobile phase for plasma, brain homogenate, blood dialysate and brain dialysate was comprised of 10 mM potassium dihydrogenphosphate-acetonitrile-triethylamine (67:33:0.01), adjusted to pH4.3 with H3PO4. The mobile phase for bile dialysate consisted of 10 mM potassium dihydrogen phosphate-acetonitrile-triethylamine (60:40:0.01), adjusted to pH6.0 with H3PO4. The flow rate was set at 1.0 mL/min for both mobile phases.

CCCCN1CCCCC1C(=O)Nc1c(C)cccc1C (stereo not shown) [BU, Bupivacaine]
AUC (Blood): 1370 ng·h/mL
half-life (Blood): 4 ± 2 min
AUC (Brain): 250 ng·h/mL
Cmax (Brain): 560 ± 130 ng/mL
